Measurements taken from patent US20080214471A1, “Method for inhibition of viral infection” (priority 1992, published 2008).

Key:
HDV virions [1] = assay: In vivo treatment of HDV in HBV-transgenic mice, serum HDV virions by RT-PCR; conditions: 50 mg/kg/day IP for one week
Huh-7 cells [2] = assay: Standard XTT assay (overall cell metabolism); format: cell-based; conditions: at a concentration that effectively inhibits HDV virion production
From the text: (§1) FIG. 8 illustrates that FT1-277 inhibits production of HDV virions. Huh-7 cells were co-transfected with HDV and HBV encoding plasmids to establish production of HDV virions, as described in the text, and grown in the presence of the indicated concentrations of FTI-277. HDV genome replication in the cells, and the amount of HDV genome-containing virions released into the supernatants, were monitored by northern blot analysis with a probe for HDV genomic RNA (left panel). The results were quantitated with a phosphoimager and the amount of virions produced at each concentration of FTI-277, expressed as a percentage of the no drug control, was plotted (purple bars, right panel). Also plotted are the results of assays for cellular metabolism (XTT assay, yellow bars), and general protein synthesis and secretion (HBV surface antigen released into the media supernatants, blue bars).
(§2) FTI-277, a prenylation inhibitor, was tested for its ability to inhibit HDV virion production. […] Non-specific toxicity was assessed by free HBV surface antigen assay, which assesses effects on general protein synthesis and secretion, and a standard XTT assay, which measures overall cell metabolism.

HDV virions [3] = assay: Inhibition of HDV virion production in co-transfected Huh-7 cells (northern blot for HDV genomic RNA); format: cell-based, hepatitis delta virus (HDV); conditions: Huh-7 cells co-transfected with HDV and HBV plasmids
From the text: as §1
Completely infectious HDV particles were produced using the system disclosed in Sureau et al., J. Virol., 66:1241-5 (1992). […]
as §2

Huh-7 cells [4] = assay: Free HBV surface antigen assay (general protein synthesis and secretion); format: cell-based; conditions: at a concentration that effectively inhibits HDV virion production
From the text: as §1, §2

[5] = Serum alanine aminotransferase (ALT) assay for non-specific toxicity; conditions: HBV-transgenic mice, 50 mg/kg/day IP for one week, on average

COC(=O)[C@H](CCSC)NC(=O)c1ccc(NC[C@@H](N)CS)cc1-c1ccccc1 [FTI-277]
production and release of HDV virions into the serum (HDV virions [1]): completely eliminated | overall cell metabolism (XTT assay) (Huh-7 cells [2]): essentially does not affect | HDV virion production (HDV virions [3]; micromolar concentration): no detectable HDV virions produced | HDV virion production (HDV virions [3]; mid-nanomolar concentration): dramatically inhibited | general protein synthesis and secretion (free HBV surface antigen released into media) (Huh-7 cells [4]): essentially does not affect | level of ALT compared with the placebo [5]: same level of ALT as the placebo
